This is an account of results in patent US20100048564A1, “FUSED BICYCLIC HETEROARYL DERIVATIVE” (DAIICHI SANKYO COMPANY, LIMITED, priority 2007, published 2010).

In one series the test system is KK mice. Kind of series: Hypoglycemic effect in diabetic KK mice (Test Example 1). The format is in vivo. The settings on record: Mus musculus, po, 72 h; male KK mice, diet admixture containing 0.03% of the compound, 3 days, plasma glucose vs control group; read-out: Hypoglycemic rate (%). From the text:
Six-week-old male KK mice were purchased from CLEA Japan, Inc. and then were fed until 15 to 20 weeks old to develop diabetes. The mice were individually fed during the adaptation period and the test period, and water and feed (FR2, Funabashi Farm) were freely ingested.
At the start of the experiment, after body weight measurement, blood was collected from the tail vein of the mice into a heparin-coated glass tube and centrifuged, and then plasma was separated. The glucose level in the plasma was measured by Glucoloader GXT (A&T Corp.), and individuals having a plasma glucose level of about 350 mg/dl or more were selected. The mice were grouped, each group having 3 to 4 mice, to make the average body weight and the average plasma glucose level similar. Each compound was administered to a compound group with a diet admixture containing 0.03% of the compound. A separate group in which the mice were fed only with diet was a control group.
The experiment period (drug administration period) was three days. The grouping day was the 0th day. On the 3rd day, the body weight was measured and blood was collected from the tail vein to measure the plasma glucose level.
The hypoglycemic rate was determined by the following formula.
Hypoglycemic rate=[(Control group blood glucose level−Compound-administered group blood glucose level)/Control group blood glucose level]×100
Consider `Cn1c(COc2cccc(C(=O)O)c2)nc2ccc(Oc3ccccc3F)cc21` [Example 28, 3-{[6-(2-Fluorophenoxy)-1-methyl-1H-benzimidazol-2-yl]methoxy}benzoic acid], for which the inhibition in vivo at 0.03 % in diet came out at 61%.
For the compound `Cn1c(COc2cccc(C(=O)O)c2)nc2ccc(Oc3cc(F)ccc3F)cc21` [Example 41, 3-{[6-(2,5-Difluorophenoxy)-1-methyl-1H-benzimidazol-2-yl]methoxy}benzoic acid], the inhibition in vivo at 0.03 % in diet is 51%.
Same read-out and setting: the value for `Cc1ccc(Oc2ccc3nc(COc4cccc(C(=O)O)c4)n(C)c3n2)cc1C` [Example 70, 3-{[5-(3,4-Dimethylphenoxy)-3-methyl-3H-imidazo[4,5-b]pyridin-2-yl]methoxy}benzoic acid] was 38%.
Turning to `Cc1ccc(Oc2ccc3nc(COc4cccc(C(=O)O)c4)n(C)c3n2)cc1` [Example 69, 3-{[3-Methyl-5-(4-methylphenoxy)-3H-imidazo[4,5-b]pyridin-2-yl]methoxy}benzoic acid], the inhibition in vivo at 0.03 % in diet is 43%.
On the same count and under the same terms, the value for `Cc1ccc(Oc2ccc3nc(COc4cccc(C(=O)O)c4)n(C)c3c2)cc1C` [Example 55, 3-{[6-(3,4-Dimethylphenoxy)-1-methyl-1H-benzimidazol-2-yl]methoxy}benzoic acid] was 44%; that for `CCc1cccc(Oc2ccc3nc(COc4cccc(C(=O)O)c4)n(C)c3c2)c1` [Example 42, 3-{[6-(3-Ethylphenoxy)-1-methyl-1H-benzimidazol-2-yl]methoxy}benzoic acid] was 29%; that for `Cn1c(COc2cccc(C(=O)O)c2)nc2ccc(Oc3cccc(OC(F)(F)F)c3)cc21` [Example 33, 3-({1-Methyl-6-[3-(trifluoromethoxy)phenoxy]-1H-benzimidazol-2-yl}methoxy]benzoic acid] was 42%.
Consider `COc1cc(Oc2ccc3nc(COc4cccc(C(=O)O)c4)n(C)c3c2)ccc1C` [Example 54, 3-{[6-(3-Methoxy-4-methylphenoxy)-1-methyl-1H-benzimidazol-2-yl]methoxy}benzoic acid], for which the inhibition in vivo at 0.03 % in diet is 32%.
The same measure, in the same setting: next, `Cc1ccc(Oc2ccc3nc(COc4cccc(C(=O)O)c4)n(C)c3c2)cc1` [Example 49, 3-{[1-Methyl-6-(4-methylphenoxy)-1H-benzimidazol-2-yl]methoxy}benzoic acid]: 48%; `Cc1ccc(Oc2ccc3nc(COc4cc(F)cc(C(=O)O)c4)n(C)c3n2)cc1` [Example 72, 3-Fluoro-5-{[3-methyl-5-(4-methylphenoxy)-3H-imidazo[4,5-b]pyridin-2-yl]methoxy}benzoic acid]: 42%.
Consider `Cn1c(COc2cc(F)cc(C(=O)O)c2)nc2ccc(Oc3ccc(Cl)c(F)c3)cc21` [Example 59, 3-{[6-(4-Chloro-3-fluorophenoxy)-1-methyl-1H-benzimidazol-2-yl]methoxy}-5-fluorobenzoic acid], for which the inhibition in vivo at 0.03 % in diet was 47%.
`CCC(CC)Oc1ccc2nc(COc3cccc(C(=O)O)c3)n(C)c2c1` [Example 67, 3-{[6-(1-Ethylpropoxy)-1-methyl-1H-benzimidazol-2-yl]methoxy}benzoic acid]: the inhibition in vivo at 0.03 % in diet turned out to be 50%.
As for `Cl.Cn1c(COc2cccc(C(=O)O)c2)nc2ccc(Oc3cccc(Cl)c3)cc21` [Example 31, 3-[6-(3-Chlorophenoxy)-1-methyl-1H-benzimidazol-2-ylmethoxy]benzoic acid hydrochloride], the inhibition in vivo at 0.03 % in diet came to 47%.
As for `COc1cccc(Oc2ccc3nc(COc4cccc(C(=O)O)c4)n(C)c3c2)c1` [Example 29, 3-{[6-(3-Methoxyphenoxy)-1-methyl-1H-benzimidazol-2-yl]methoxy}benzoic acid], the inhibition in vivo at 0.03 % in diet worked out at 60%.

Tested on in another series: not given
Assay: not given
Settings: not given
In general, melting point refers to the temperature of the solid-liquid transition. Regarding `CCc1cccc(Oc2ccc3nc(COc4cccc(C(=O)O)c4)n(C)c3c2)c1` [Example 42, 3-{[6-(3-Ethylphenoxy)-1-methyl-1H-benzimidazol-2-yl]methoxy}benzoic acid], the melting point lay in the range of 204 to 208 °C.
On to `Cn1c(COc2cccc(C(=O)O)c2)nc2ccc(Oc3cccc(OC(F)(F)F)c3)cc21` [Example 33, 3-({1-Methyl-6-[3-(trifluoromethoxy)phenoxy]-1H-benzimidazol-2-yl}methoxy]benzoic acid], for which the melting point fell in the range of 221 to 227 °C.
For `COC(=O)c1cccc(OCc2nc3ccc(Oc4cccnc4)cc3n2C)c1.Cl.Cl`, the melting point fell in the range of 195 to 208 °C.
`Cl.Cn1c(COc2cccc(C(=O)O)c2)nc2ccc(Oc3cccc(Cl)c3)cc21` [Example 31, 3-[6-(3-Chlorophenoxy)-1-methyl-1H-benzimidazol-2-ylmethoxy]benzoic acid hydrochloride] had a melting point of 218 to 222 °C.
On the same count and under the same terms, next, `Cn1c(COc2cccc(C(=O)O)c2)nc2ccc(Oc3cc(F)cc(Cl)c3)cc21` [Example 38, 3-{[6-(3-Chloro-5-fluorophenoxy)-1-methyl-1H-benzimidazol-2-yl]methoxy}benzoic acid]: 209 to 213 °C.
`Cc1cc(F)cc(Oc2ccc3nc(COc4cccc(C(=O)O)c4)n(C)c3c2)c1` [Example 40, 3-{[6-(3-Fluoro-5-methylphenoxy)-1-methyl-1H-benzimidazol-2-yl]methoxy}benzoic acid] returned a melting point of 224 to 226 °C.
